From patent US8318495B1, “Hematopoietic progenitor cell gene transduction” (Case Western Reserve University, priority 1998, dated 2012) come the findings set out here.

SMILES strings stand for the structures. Values joined by “and” are separate entries in the source; they are usually repeats but may differ in a detail not shown here. Identical values can stand only once. Like-named read-outs stand apart in the source and are kept apart here. Bounds are passed on as bounds.

The IC50 is the concentration that inhibits the measured activity by half. What is called IC90 is the concentration needed for an effect of 90%.

Assay [1] concerns untransduced hematopoietic CD34+ progenitor cells. Put plainly: Drug resistance: CFU survival after BG plus TMZ or BCNU, untransduced cells. Format: cell-based. To be noted: Homo sapiens, 10 μM BG 1 hour, then drug 2 hours. How it is done:
(§1) Drug resistance conferred by ΔMGMT To evaluate drug resistance conferred by ΔMGMT, primary CFU survival at the TMZ or BCNU IC50 and IC90 in transduced or untransduced cells was compared. IC50 (or IC90) is the determination of CFU survival after exposure to TMZ or BCNU in the presence of the AGT inhibitor BG. Following a retroviral transduction period of 72-96 hours, hematopoietic CD34+ progenitor cells were pretreated for 1 hour with 10 μM BG followed by increasing concentrations of TMZ or BCNU for 2 hours. Cells were washed free of drug, plated in methylcellulose and 5 μM BG was added to maintain depletion of endogenous AGT. After culture in methylcellulose, the colonies formed were counted as either CFU-GM, BFU-E and CFU-GEMM (referred to as CFU). Individual CFU were collected from 10 independent experiments, each from a different donor.

In assay [2] the test system is ΔMGMT transduced hematopoietic CD34+ progenitor cells. Put plainly: Drug resistance: CFU survival after BG plus TMZ or BCNU, ΔMGMT transduced cells. To be noted: for IC50 / IC90: Homo sapiens, 10 μM BG 1 hour, then drug 2 hours. Type of assay: cell-based, human.
From the text: CD34+ cells were transduced with MFG-ΔMGMT high titer retroviral supernatant obtained as described in Reese et al. 1996. ΔMGMT encodes a mutant form of O-^6 alkylguanine DNA alkyltransferase (ΔAGT) and contains a point mutation which renders the protein resistant to the inhibitor O^6-benzylguanine (BG). CD34+ cells transduced with ΔMGMT are resistant to the drug combinations BG and 1,3bis(2-chloroethly)-1-nitrosourea (BCNU) (Reese et al. 1996) and BG and temozolomide (TMZ) (Reese et al. 1998). The CD34+ cells were transduced as follows: pMFG-wtMGMT or pMFG-ΔMGMT and pSV2neo DNA were cotransfected into the packaging line GP+E86, followed by viral supernatant infection of the amphotropic cell line GP+envAm12 (Markowitz, D. et al. 1988) (Arthur Bank, Columbia University). To increase titer, a supernatant “ping-pong” method was used (Bodine et al. 1990).
as §1

On to `Cn1nnc2c(C(N)=O)ncn2c1=O` [TMZ, temozolomide], for which the IC50 in assay [1] (stroma Allo MSC) was found to be 25.5 µM; in assay [1] (stroma auto MSC) it was 9.8 µM; in assay [2] (read-out: CFU IC50 ΔMGMT, stroma Allo MSC), 71 µM; in assay [2] (read-out: CFU IC50 ΔMGMT, stroma FN) it was 123 µM; in assay [2] (read-out: CFU IC50 ΔMGMT, stroma auto MSC), 64 µM. Moreover, the IC90 in assay [1] (stroma Allo MSC) is 48 µM; in assay [1] (stroma FN) it was 29 µM; in assay [1] (stroma auto MSC), 29 µM; in assay [2] (read-out: CFU IC90 ΔMGMT, stroma Allo MSC), more than 300 µM; in assay [2] (read-out: CFU IC90 ΔMGMT, stroma FN), more than 300 µM; in assay [2] (read-out: CFU IC90 ΔMGMT, stroma auto MSC), more than 300 µM. Further, the “average fold increase in the IC50 after exposure to BG” value in assay [2] (FN (TMZ n=2, BCNU n=1)) is listed as 7.7 fold; in assay [2] (allo MSC and auto MSC (n=4)), 5.2 fold. Also, the “increase in the IC90 after exposure to BG” value in assay [2] (FN (TMZ n=2, BCNU n=1)) is listed as more than 8.2 fold; in assay [2] (allo MSC and auto MSC (n=4)) it was more than 9.8 fold. The “fold increase in ΔMGMT/untransduced CFU IC50” value in assay [2] (stroma Allo MSC) was 2.8 fold and 2.4 fold; in assay [2] (stroma auto MSC), 6.5 fold and 8.9 fold. Further, the “fold increase in ΔMGMT/untransduced CFU IC90” value in assay [2] (stroma Allo MSC) was >6 fold and >5.3 fold; in assay [2] (stroma FN), >10.3 fold and >6 fold; in assay [2] (stroma auto MSC), >10.3 fold and 17.7 fold.

In the case of `O=NN(CCCl)C(=O)NCCCl` [BCNU, 1,3bis(2-chloroethly)-1-nitrosourea], the “increase in the IC90 after exposure to BG” value in assay [2] (Dexter) was 2.5 fold; in assay [2] (FN (TMZ n=2, BCNU n=1)), more than 10 fold; in assay [2] (allo MSC (n=1)), more than 6 fold. In addition, the “average increase in the IC50 after exposure to BG” value in assay [2] (Dexter (n=2)) came to 5.6 fold; in assay [2] (allo MSC (n=1)), 2 fold. In assay [2] (FN (TMZ n=2, BCNU n=1)), the “average fold increase in the IC50 after exposure to BG” value is on record as 2.8 fold. In addition, the “fold increase in ΔMGMT/untransduced CFU IC50” value in assay [2] (stroma Allo MSC) came out at 5.6 fold; in assay [2] (stroma FN) it was 2.8 fold. The “fold increase in ΔMGMT/untransduced CFU IC90” value is recorded as more than 6 fold in assay [2] (stroma Allo MSC) and 2.5 fold in assay [2] (stroma Dexter).
